Measurements taken from patent US20080125663A1, “Pre-And Intra-Operative Imaging of Testicular Torsion” (University of Rochester Medical Center, priority 2006, published 2008).
Entries after “also recorded” stand apart in the source; their conditions may differ.

Assays:
mammals = conditions: cited from earlier work; for neuronal toxicity: used in mammals
testes of a rat = assay: Near IR fluorescence imaging of testicular perfusion after unilateral interruption of blood flow to the right testis; assay type: in vivo
Experimental: Intraoperative video angiography is performed with a laser-fluorescence imaging device (Novadaq Technologies, Inc., Toronto, Canada) consisting of a near infrared (NIR) laser light source and a NIR-sensitive digital camcorder. For measurements, the unit is positioned 30 to 40 cm from the area of interest. ICG, dissolved in water, is then injected as a bolus. When ICG is used as the imaging dye, NIR light emitted by the laser light source induces ICG fluorescence. The fluorescence is typically imaged by a video camera, with optical filtering to block ambient and laser light so that only ICG fluorescence is captured. […] Two rats were subjected to unilateral interruption of blood flow to the right testis. In rat A, a bulldog clamp was used, in rat B, a mosquito clamp (a smaller clamp designed to cut off blood flow in small blood vessels) was used. ICG was administered by IV to each rat to determine the ability to visualize the degree to which the testicle underwent hypoperfusion or lack of perfusion. Prior to administration of ICG, rat A was first subjected to near IR and imaged. […] 0.5 ml of ICG at a concentration of 2.5 mg/ml was then administered by IV. The right spermatic cord was clamped with a bulldog clamp to create vascular obstruction and the testicles were imaged.

[1] = cited from earlier work
[2] = bulldog clamp, 0.5 ml of 2.5 mg/ml ICG IV, imaged through the scrotum

Row | Compound | neuronal toxicity (mammals) | fluorescence of the right testicle after removal of the clamp (reperfusion) (testes of a rat; bulldog clamp removed from the spermatic cord) | fluorescence of the right testicle during clamp obstruction of the right spermatic cord (testes of a rat; bulldog clamp, 0.5 ml of 2.5 mg/ml ICG IV, exposed testes) | fluorescence of the left hemiscrotum (unclamped side) (testes of a rat; [2]) | fluorescence of the right hemiscrotum (clamped side) (testes of a rat; [2]) | differential perfusion seen after occlusion (testes of a rat; mosquito (vascular) clamp, ICG IV) | toxicity (mammals; in vivo) | distribution ([1]; after intravenous injection, with normal vascular permeability) | time to binding, mainly to globulins (1-lipoproteins) ([1]; after intravenous injection) [s] | enterohepatic recirculation ([1]; in vivo) | excretion ([1]; in vivo) | metabolism in the body ([1]; in vivo) | reabsorption from the intestine ([1]; in vivo)
1 | Fast Blue | low evidence of neuronal toxicity |  |  |  |  |  |  |  |  |  |  |  | 
2 | CC1(C)C(/C=C/C=C/C=C/C=C2\N(CCCCS(=O)(=O)O)c3ccc4ccccc4c3C2(C)C)=[N+](CCCCS(=O)(=O)[O-])c2ccc3ccccc3c21 [ICG, indocyanine green] | low evidence of neuronal toxicity | restoration of fluorescence; also recorded: Fluoresence of the right testicle was observed | absence of fluorescence | intense fluorescence | low fluorescence | obvious differential perfusion | low toxicity | remains intravascular | 1 to 2 | does not undergo enterohepatic recirculation | excreted exclusively by the liver | not metabolized | not reabsorbed from the intestine
3 | N=C(N)c1ccc(/C=C/c2ccc(C(=N)N)cc2O)cc1 [Fluorogold] | low evidence of neuronal toxicity |  |  |  |  |  |  |  |  |  |  |  | 
